# Earlier results in patent US20240398838A1 (priority 2023, published 2024).
# Square brackets hold non-standard residues; d marks the D form. Peptide text beside a SMILES is read from it. Cit = NC(=O)NCCC[C@H](N)C(=O)O
# Legend:
# [1] = system: leukemia cells of two cultured leukemia cell lines; details: in vitro
# [2] = in vivo
# [3] = topical, within four weeks of treatment
# [4] = compared to placebo
# ticks and mosquitoes = details: compared with DEET
# [5] = mice with colitis
# CB2 receptor = CB2 receptor (Homo sapiens, UniProt P34972)
# [6] = arthritic subjects
# [7] = patients who did not respond to traditional antidepressant medications
# [8] = in vivo; remark: listed apart in the source
# [9] = compared to α-tocopherol = 1.0
# [10] = not given; remark: listed apart in the source
# [11] = system: wide dynamic range neurons in the ventroposterolateral nucleus of the thalamus; details: in vivo
# [12] = even when dietary intake occurs in equal portions
# [13] = individuals with metabolic syndrome
# [14] = topical, concentrations 0.5-5%
# [15] = system: herpes simplex virus type 1
# CB2 receptor, sequence (P34972 whole entry): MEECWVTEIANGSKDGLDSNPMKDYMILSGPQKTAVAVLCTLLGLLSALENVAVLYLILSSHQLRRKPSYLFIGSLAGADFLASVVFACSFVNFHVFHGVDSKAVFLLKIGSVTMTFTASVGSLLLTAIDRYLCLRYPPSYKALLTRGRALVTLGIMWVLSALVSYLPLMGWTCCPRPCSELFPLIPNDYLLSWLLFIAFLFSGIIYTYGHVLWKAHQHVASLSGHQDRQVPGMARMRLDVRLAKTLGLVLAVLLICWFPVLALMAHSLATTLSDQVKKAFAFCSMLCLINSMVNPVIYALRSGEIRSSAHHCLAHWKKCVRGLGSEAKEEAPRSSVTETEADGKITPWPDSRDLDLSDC
compound,measurement,setting,value
"CC12CCC(CC1)C(C)(C)O2 [eucalyptol, 1,8-epoxy-p-menthane]",killing of leukemia cells,[1],able to kill
HGH: hormone comprising a peptide chain that is synthesized in the pituitary gland,biological half-life,[2],10-20 minutes
CC[C@H](C)[C@H](NC(=O)[C@H](CC(=O)O)NC(=O)[C@@H](N)CCCCN)C(=O)N[C@@H](CCCNC(N)=O)C(N)=O [Tripeptide-10 citrulline] (H-KDI[Cit]-NH2),improve suppleness,[3],≤ 54%
"Cc1ccc(C(C)C)cc1 [p-cymene, 1-isopropyl-4-methylbenzene]",antifungal activity,candida species,strong antifungal activity
C/C=C1\[C@H]2C=C(C)C[C@]1(N)c1ccc(=O)[nH]c1C2 [Huperzine A],memory recall and cognitive function,[4],significant improvements
C=C(C)[C@@H]1CCC2=CCC[C@@H](C)[C@]2(C)C1 [Valencene],toxicity to ticks and mosquitoes,ticks and mosquitoes,toxic to ticks and mosquitoes at lesser concentrations than DEET
CC1=CCC(=C(C)C)CC1 [Terpinolene],expression of the AKT1 gene,AKT1 gene,markedly reduces
Cc1c(C)c2c(c(C)c1O)CC[C@@](C)(CCC[C@H](C)CCC[C@H](C)CCCC(C)C)O2 [α-tocopherol],blood plasma concentration of F2-isoprostane,1600-3200 IU/day,significantly lower
same,reducing the risk of coronary disease,doses up to 400 IU/day,up to 34%
same,reduce the risk of developing neurodegenerative diseases such as Alzheimer's Syndrome or dementia,"doses up to 400 IU/day, controlled trials",≤ 24%
"C=C(C)[C@@H]1CCC(C)=C[C@H]1c1c(O)cc(CCCCC)cc1O [CBD, cannabidiol]",modulation of the gut microbiome,[5],ability to modulate the gut microbiome
"CC(C)=CCC[C@](C)(O)[C@@H]1CC=C(C)CC1 [A-bisabolol, α-bisabolol]",antifungal activity,candida species,potent inhibitor
C=C1CC/C=C(\C)CC[C@@H]2[C@@H]1CC2(C)C [β-caryophyllene],activity at CB2 receptor,CB2 receptor,functional CB2 agonist
same,swelling of joints and lymph nodes,[6],reduced swelling of joints and lymph nodes
"CN1c2c([nH]c(N)nc2=O)NCC1CNc1ccc(C(=O)N[C@@H](CCC(=O)O)C(=O)O)cc1 (some centres unmarked) [5-MTHF, 5-methyltetrahydrofolate]",symptoms of depression,[7],improved symptoms of depression
CCNC(=O)CC[C@H](N)C(=O)O [Theanine],dose considered safe and well-tolerated,[8],up to 400 mg per day
Cc1cc(O)c(C)c2c1O[C@](C)(CCC[C@H](C)CCC[C@H](C)CCCC(C)C)CC2 [β-tocopherol],relative biological activity,[9],0.5
C/C(=C\CO)CCC[C@H](C)CCC[C@H](C)CCCC(C)C [Phytol],solubility,[10],"nearly insoluble in water, but soluble in most organic solvents"
"CCCCCc1cc(O)c2c(c1)OC(C)(C)C1CCC(C)=CC21 (centres unmarked) [THC, Δ-9-tetrahydrocannabinol]",modulation of the gut microbiome,[5],ability to modulate the gut microbiome
same,power in mediating pain relative to morphine,[11],ten times more powerful than morphine
Cc1c(O)cc2c(c1C)O[C@](C)(CCC[C@H](C)CCC[C@H](C)CCCC(C)C)CC2 [γ-tocopherol],relative biological activity,[9],0.1
same,concentration in vivo relative to α-tocopherol,[12],roughly 10%
Cc1cc(O)cc2c1O[C@](C)(CCC[C@H](C)CCC[C@H](C)CCCC(C)C)CC2 [δ-tocopherol],relative biological activity,[9],0.03
same,markers of inflammation in the blood,[13],reduced markers of inflammation
"C=CCCCCCCCCC(=O)N[C@@H](Cc1ccccc1)C(=O)O [UP, Undecylenoyl phenylalanine]",time of treatment to skin lightening effects,[14],≥ 7 days
CC1(C)[C@@H]2CC[C@@]1(C)[C@@H](O)C2 [Isoborneol],inhibition of herpes simplex virus type 1,[15],potent inhibitor
